Source: patent US5366982A (priority 1990, dated 1994)
Like-named read-outs stand apart in the source and are kept apart here.

Columns and labels:
[1] = tested on: guinea-pig pulmonary parenchyma; assay: L. Parenchyma: guinea-pig pulmonary parenchyma contraction antagonism induced by LTB4 (Sirois); type: cell-based; conditions: Cavia porcellus, read-out: IC50 L. Parenchyma
Procedure: Further, compounds of this invention are shown to be leukotriene B4 antagonists in the technique of guinea-pig pulmonary parenchyma contraction antagonism induced by LTB4 described by P. Sirois et al., Pharmacology, 31, 225-236 (1985). In this technique, products are active at concentrations of between about 1 to about 10,000 nM.

leukotriene B4 receptors = leukotriene B4 receptors (Cavia porcellus, UniProt H0VYV8); assay: biochemical; type: binding, guinea-pig; conditions: for IC50: Table XIX, guinea-pig spleen membranes, tritium-labelled LTB4, read-out: IC50 Binding (Cheng)
[2] = Table XIX, guinea-pig pulmonary parenchyma contraction induced by LTB4

Sequence of leukotriene B4 receptors (H0VYV8 1-348): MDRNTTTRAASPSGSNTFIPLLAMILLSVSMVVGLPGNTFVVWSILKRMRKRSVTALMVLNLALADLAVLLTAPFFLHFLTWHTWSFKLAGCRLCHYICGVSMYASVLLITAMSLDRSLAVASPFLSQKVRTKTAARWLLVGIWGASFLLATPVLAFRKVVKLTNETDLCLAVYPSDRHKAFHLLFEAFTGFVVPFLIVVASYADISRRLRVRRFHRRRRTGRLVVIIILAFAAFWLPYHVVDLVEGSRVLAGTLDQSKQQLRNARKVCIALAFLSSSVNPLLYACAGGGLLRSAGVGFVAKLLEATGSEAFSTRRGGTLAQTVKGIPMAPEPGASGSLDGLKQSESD

SMILES | IC50 [1, 2] | IC50 (leukotriene B4 receptors) | IC50 [1] | inhibition at 10 µM (leukotriene B4 receptors; read-out: Binding (Cheng) % Inhibition at 10 μM)
COc1cccc(-c2cc(OCCCCC(C)C(=O)O)nc(-c3ccccc3)c2)c1 (centres unmarked) [2-methyl-6-{[4-(3-methoxyphenyl)-6-phenyl-2-pyridyl]oxy}hexanoic acid] | 0.02 µM | – | – | –
CC(C)(CCCCOc1cc(-c2ccccc2)cc(-c2ccccc2)n1)C(=O)O [2,2-dimethyl-6-[(4,6-diphenyl-2-pyridyl)oxy]hexanoic acid] | 0.01 µM | – | – | –
O=C(O)CCCCCOc1cc(-c2ccccc2)cc(-c2ccc(F)cc2)n1 [6-{[6-(4-fluorophenyl)-4-phenyl-2-pyridyl]oxy}hexanoic acid] | 1.7 µM | 0.03 µM | – | –
CCC(CCCCOc1cc(-c2ccccc2)cc(-c2ccccc2)n1)C(=O)O (centres unmarked) [2-ethyl-6-[(4,6-diphenyl-2-pyridyl)oxy]hexanoic acid] | 0.07 µM | 0.003 µM | – | –
O=C(O)CCCCCOc1cc(-c2ccccc2)cc(-c2ccccc2F)n1 [6-{[6-(2-fluorophenyl)-4-phenyl-2-pyridyl]oxy}hexanoic acid] | 0.06 µM | 0.003 µM | – | –
CNc1ccc(-c2cc(OCCCCCC(=O)O)nc(-c3ccccc3)c2)cc1 [6-{[4-(4-methylaminophenyl)-6-phenyl-2-pyridyl]oxy}hexanoic acid] | 0.15 µM | – | – | –
CC(C)(C)c1cc(-c2ccccc2)cc(OCCCCCC(=O)O)n1 [6-[(6-ter-butyl-5-phenyl-2-pyridyl)oxy]hexanoic acid] | 2 µM | 0.3 µM | – | –
CC(C)(CCCCOc1cc(-c2ccc(F)cc2)cc(-c2ccccc2)n1)C(=O)O [2,2-dimethyl-6-{[4-(4-fluorophenyl)-6-phenyl-2-pyridyl]oxy}hexanoic acid] | 0.3 µM | 0.007 µM | – | –
CC(C)(CCCCOc1cc(-c2ccccc2)cc(-c2ccsc2)n1)C(=O)O [2,2-dimethyl-6-{[4-phenyl-6-(3-thienyl)-2-pyridyl]oxy}hexanoic acid] | 0.1 µM | 0.005 µM | – | –
CC(CCCCOc1cc(-c2ccc(N)cc2)cc(-c2ccccc2)n1)C(=O)O (centres unmarked) [2-methyl-6-{[4-(4-aminophenyl)-6-phenyl-2-pyridyl]oxy}hexanoic acid] | 0.02 µM | – | – | –
O=C(O)c1ccc(COc2cc(-c3ccccc3)cc(-c3ccccc3)n2)cc1 [4-[(4,6-diphenyl-2-pyridyl)oxymethyl]benzoic acid] | 10 µM | 0.35 µM | – | –
O=C(O)CCCCCOc1cc(-c2ccc(F)cc2)cc(-c2ccccc2)n1 [6-{[4-(4-fluorophenyl)-6-phenyl-2-pyridyl]oxy}hexanoic acid] | 0.8 µM | 0.003 µM | – | –
CC(CCCCOc1cc(-c2ccccc2)cc(-c2ccccc2)n1)C(=O)O (centres unmarked) [2-methyl-6-[(4,6-diphenyl-2-pyridyl)oxy]hexanoic acid] | 0.01 µM | 0.004 µM | – | –
O=C(O)CCCCCOc1cc(-c2ccccc2)cc(-c2ccccc2)n1 [6-[(4,6-diphenyl-2-pyridyl)oxy]hexanoic acid] | 0.3 µM | 0.003 µM | – | –
CN(C)c1ccc(-c2cc(OCCCCCC(=O)O)nc(-c3ccccc3)c2)cc1 [6-{[4-(4-dimethylaminophenyl)-6-phenyl-2-pyridyl]oxy}hexanoic acid] | 6 µM | – | – | –
COC(=O)CCCCCOc1cc(-c2ccccc2)cc(-c2ccccc2)n1 [methyl 6-[(4,6-diphenyl-2-pyridyl)oxy]hexanoate] | > 10 µM | 0.04 µM | – | –
O=C(O)CCCCCOc1cc(-c2cccc(F)c2)cc(-c2ccccc2)n1 [6-{[4-(3-fluorophenyl)-6-phenyl-2-pyridyl]oxy}hexanoic acid] | 0.2 µM | 0.003 µM | – | –
NC(=O)CCCCCOc1cc(-c2ccccc2)cc(-c2ccccc2)n1 [6-[(4,6-diphenyl-2-pyridyl)oxy]hexanamide] | > 1 µM | 0.16 µM | – | –
O=C(O)CCCCCOc1cc(-c2ccccc2)cc(-c2ccccc2Cl)n1 | – | 0.0018 µM | 0.2 µM | –
CC(CCCCOc1cc(-c2ccccc2)cc(-c2ccccc2F)n1)C(=O)O (centres unmarked) [2-methyl-6-{[6-(2-fluorophenyl)-4-phenyl-2-pyridyl]oxy}hexanoic acid] | 0.006 µM | 0.004 µM | – | –
CC(C)(CCCCOc1cc(-c2ccc3c(c2)OCO3)cc(-c2ccccc2)n1)C(=O)O [2,2-dimethyl-6-{[4-(3,4-methylenedioxyphenyl)-6-phenyl-2-pyridyl]oxy}hexanoic acid] | 0.14 µM | – | – | –
COc1cccc(-c2cc(OCCCCCC(=O)O)nc(-c3ccccc3)c2)c1 [6-{[4-(3-methoxyphenyl)-6-phenyl-2-pyridyl]oxy}hexanoic acid] | 0.2 µM | 0.008 µM | – | –
CC(CCCCOc1cc(-c2ccc(Cl)cc2)cc(-c2ccccc2)n1)C(=O)O (centres unmarked) [2-methyl-6-{[4-(4-chlorophenyl)-6-phenyl-2-pyridyl]oxy}hexanoic acid] | 0.07 µM | – | – | –
O=C(O)CCCCCOc1cc(-c2ccc(F)cc2)cc(-c2ccccc2F)n1 [6-{[4-(4-fluorophenyl)-6-(2-fluorophenyl)-2-pyridyl]oxy}hexanoic acid] | 1 µM | 0.01 µM | – | –
CC(C)(CCCCOc1cc(-c2cccc(Cl)c2)cc(-c2ccccc2)n1)C(=O)O [2,2-dimethyl-6-{[4-(3-chlorophenyl)-6-phenyl-2-pyridyl]oxy}hexanoic acid] | 1 µM | 0.013 µM | – | –

SMILES | IC50 [1, 2] | IC50 (leukotriene B4 receptors) | IC50 [1] | inhibition at 10 µM (leukotriene B4 receptors; read-out: Binding (Cheng) % Inhibition at 10 μM)
c1ccc(-c2cc(OCCCCCc3nn[nH]n3)nc(-c3ccccc3)c2)cc1 [5-{[5-(4,6-diphenyl-2-pyridyl)oxy]pentyl}-[1H]-tetrazole] | 0.01 µM | – | – | –
O=C(O)CCCCCOc1cc(-c2ccccc2)cc(-c2cccc(F)c2)n1 [6-{[6-(3-fluorophenyl)-4-phenyl-2-pyridyl]oxy}hexanoic acid] | 0.15 µM | 0.004 µM | – | –
CC(C)(CCCCOc1cc(-c2ccccc2)ccn1)C(=O)O [6-[(4-phenyl-2-pyridyl)oxy]-2,2-dimethylhexanoic acid] | 3 µM | 0.04 µM | – | –
O=C(O)CCCCCOc1cc(-c2ccccc2)cc(-c2cccs2)n1 [6-{[4-phenyl-6-(2-thienyl)-2-pyridyl]oxy}hexanoic acid] | 0.3 µM | 0.05 µM | – | –
CC(C)(CCCCOc1cc(-c2ccccc2)cc(-c2cccs2)n1)C(=O)O [2,2-dimethyl-6-{[4-phenyl-6-(2-thienyl)-2-pyridyl]oxy}hexanoic acid] | 1 µM | 0.015 µM | – | –
CC(C)(CCCCOc1cc(-c2ccccc2)cc(C(C)(C)C)n1)C(=O)O [6-[(6-ter-butyl-4-phenyl-2-pyridyl)oxy]-2,2-dimethylhexanoic acid] | 1 µM | 0.04 µM | – | –
O=C(O)CCCCCOc1cc(-c2ccccc2F)cc(-c2ccccc2)n1 [6-{[4-(2-fluorophenyl)-6-phenyl-2-pyridyl]oxy}hexanoic acid] | 1.7 µM | – | – | –
COc1ccc(-c2cc(OCCCCC(C)(C)C(=O)O)nc(-c3ccccc3)c2)cc1 [2,2-dimethyl-6-{[4-(4-methoxyphenyl)-6-phenyl-2-pyridyl]oxy}hexanoic acid] | 0.17 µM | 0.05 µM | – | –
O=C(O)CCCCCOc1cc(-c2ccc(Cl)cc2)cc(-c2ccccc2)n1 [6-{[4-(4-chlorophenyl)-6-phenyl-2-pyridyl]oxy}hexanoic acid] | 0.1 µM | 0.01 µM | – | –
Cc1ccc(-c2cc(OCCCCC(C)C(=O)O)nc(-c3ccccc3)c2)cc1 (centres unmarked) [2-methyl-6-{[4-(4-methylphenyl)-6-phenyl-2-pyridyl]oxy}hexanoic acid] | 0.02 µM | – | – | –
CC(CCCCOc1cc(-c2cccc(Cl)c2)cc(-c2ccccc2)n1)C(=O)O (centres unmarked) [2-methyl-6-{[4-(3-chlorophenyl)-6-phenyl-2-pyridyl]oxy}hexanoic acid] | 1 µM | – | – | –
CCC(C)(CCCCOc1cc(-c2ccccc2)cc(-c2ccccc2)n1)C(=O)O (centres unmarked) [2-ethyl-2-methyl-6-[(4,6-diphenyl-2-pyridyl)oxy]hexanoic acid] | 0.03 µM | 0.017 µM | – | –
O=C(O)CCCCCCOc1cc(-c2ccccc2)cc(-c2ccccc2)n1 [7-[(4,6-diphenyl-2-pyridyl)oxy]heptanoic acid] | 1.3 µM | 0.025 µM | – | –
COc1ccc(-c2cc(OCCCCCC(=O)O)nc(-c3ccccc3)c2)cc1 [6-{[4-(4-methoxyphenyl)-6-phenyl-2-pyridyl]oxy}hexanoic acid] | 1.1 µM | 0.015 µM | – | –
COc1ccc(-c2cc(OCCCCC(C)C(=O)O)nc(-c3ccccc3)c2)cc1 (centres unmarked) [2-methyl-6-{[4-(4-methoxyphenyl)-6-phenyl-2-pyridyl]oxy}hexanoic acid] | 0.02 µM | – | – | –
Nc1ccc(-c2cc(OCCCCCC(=O)O)nc(-c3ccccc3)c2)cc1 [6-{[4-(4-aminophenyl)-6-phenyl-2-pyridyl]oxy}hexanoic acid] | 0.04 µM | – | – | –
CC(C)(CCCCCOc1cc(-c2ccccc2)cc(-c2ccccc2)n1)C(=O)O [2,2-dimethyl-7-[(4,6-diphenyl-2-pyridyl)oxy]heptanoic acid] | 0.03 µM | – | – | –
CC(C)(CCCCOc1cc(-c2ccc(Cl)cc2)ccn1)C(=O)O [6-{[4-(4-chlorophenyl)-2-pyridyl]oxy}-2,2-dimethylhexanoic acid] | – | 0.02 µM | – | –
O=C(O)CCCCCCOc1ncc(-c2ccccc2)c(-c2ccccc2)n1 [7-(4,5-diphenyl-2-pyrimidyloxy)heptanoic acid] | – | – | – | 22%
CC(C)(CCCCOc1ccc(-c2ccccc2)c(-c2ccccc2)n1)C(=O)O [6-[(5,6-diphenyl-2-pyridyl)oxy]-2,2-dimethylhexanoic acid] | – | 10 µM | – | –
O=C(O)CCCCCCCSc1nc(-c2ccccc2)c2ccccc2n1 | – | 9 µM | – | –
O=C(O)CCCCCOc1cc(-c2cc(Cl)cc(Cl)c2)cc(-c2ccccc2)n1 [6-{[4-(3,5-dichlorophenyl)-6-phenyl-2-pyridyl]oxy}hexanoic acid] | – | 0.5 µM | – | –
Cc1cccc(-c2cc(OCCCCC(C)(C)C(=O)O)nc3ccccc23)c1 [2,2-dimethyl-6-{[4-(3-tolyl)-2-quinolyl]oxy}hexanoic acid] | – | 3.5 µM | – | –
CC(CCCCOc1cc(-c2ccccc2)c2ccccc2n1)C(=O)O (centres unmarked) [2-methyl-6-[(4-phenyl-2-quinolyl)oxy]hexanoic acid] | – | 0.55 µM | – | –
